“Also recorded” adds a separate entry of the source.

The test system of assay [1] is β1- and β2-adrenergic receptors. To be noted: cited from earlier work.
Another assay has as its target T1, SOX18 (Homo sapiens, UniProt P35713).
T1 sequence (P35713 1-384): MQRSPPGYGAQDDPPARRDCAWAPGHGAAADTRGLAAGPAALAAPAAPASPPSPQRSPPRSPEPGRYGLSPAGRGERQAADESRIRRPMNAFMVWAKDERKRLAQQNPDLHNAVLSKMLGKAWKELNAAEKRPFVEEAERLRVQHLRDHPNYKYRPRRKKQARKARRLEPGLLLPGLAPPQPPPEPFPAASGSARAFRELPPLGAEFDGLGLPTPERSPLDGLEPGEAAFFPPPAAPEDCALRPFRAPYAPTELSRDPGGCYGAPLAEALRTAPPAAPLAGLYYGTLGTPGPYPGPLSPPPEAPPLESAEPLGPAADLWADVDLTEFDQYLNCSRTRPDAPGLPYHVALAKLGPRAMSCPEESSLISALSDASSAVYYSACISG
The settings on record: cited from earlier work.

The subject of assay [2] is HemSC. The settings on record: earlier work; cited from earlier work.
Assay [3] has as its system SREBP2. The assay can be described thus: Western blot of SREBP2 in HemSC undergoing endothelial differentiation. Type of assay: cell-based, human. The settings on record: 2 hours on Day 6 of differentiation, hydrochloride. How it is done: (§1) Cells were lysed in a RIPA-based lysis buffer (25 mM Tris HCl pH 7.6, 150 mM NaCl, 1% NP-40, 1% sodium deoxycholate, 0.1% SDS) with protease and phosphatase inhibitors (Cell Signaling Technology). Cell extracts were electrophoresed by sodium dodecyl sulfate-polyacrylamide gel electrophoresis (SDS-PAGE), transferred to nitrocellulose or to polyvinylidene difluoride (PDVF) and probed with SOX18 D-8 (Santa Cruz Biotechnology) or SREBP2 clone 22D5 (MilliporeSigma) and GAPDH (Cell Signaling Technology). All signals were detected by enhanced chemiluminescence. The densitometric analysis was conducted by using Fiji ImageJ software.
A general note: In western blotting, separated proteins are transferred to a membrane and probed.

Assay [4] has as its system MVP genes (HMGCS1, HMGCR, MVK, ABCA1). The assay can be described thus: Mevalonate pathway (MVP) gene transcripts in differentiating HemSC, bulk RNA-seq and qPCR. To be noted: for transcripts encoding MVP enzymes (incl. HMGCR, HMGCS1, MVK), RNA-seq: 20 μM, 2 hours, Day 6 of differentiation, hydrochloride. The assay is classed as cell-based, human. On the technique in general: Quantitative PCR measures a nucleic acid by following its amplification.

The subject of assay [5] is SREBP2. The assay can be described thus: SOX18 shRNA knockdown HemEC: SREBP2 Western blot and qPCR of SREBP2 target genes. The assay is classed as cell-based, human. The settings on record: shSOX18 HemEC. The method, then:
shRNA knockdown of SOX18: HemEC (n=3) were transduced with SOX18 shRNA lentivirus (TRCN0000017450, Sigma) or an empty vector control virus (Sigma) followed by puromycin (1 μg/mL) selection for 5 days. Thereafter, cells were maintained in full media without puromycin. Knockdown efficiency was confirmed by qPCR and Western Blot (FIG. 7C-7G, 8A-8B).
as §1

For assay [6], the system named is cholesterol biosynthesis in HUVEC. The assay can be described thus: Endogenous cholesterol in cholesterol-depleted HUVEC by mass spectrometry. Type of assay: cell-based, human. The settings on record: 16 hours. How it is done: Cell culture: HUVECs were grown in EBM-2 media (Lonza, CC-3156) and supplemented with EGM-2 bullet kit (Lonza, CC-3162). HUVECs were seeded on 0.5% gelatin-coated 6-well plates at a density of 1.5×10^5 cells/well for overnight.
Methyl-β-cyclodextrin treatment: The day after cell seeding cells were treated with, (MBCD, Sigma #C4555) at a concentration of 2.5 mM to ensure a similar level of endogenous cholesterol among the groups. The treatment with MBCD was completely withdrawn after 4 hours by discarding the media and washed the cells with PBS. […] Cells were then washed with PBS and trypsinized. Following trypsinization cells were washed with PBS and centrifuged (FIG. 4B, 4C).
Cholesterol measurement using Targeted Mass Spectrometry: Lipids were extracted from the cell pellets through one-phase extraction with 202 μL of BuOH: MeOH (1:1) (Sigma #71-36-3 and #67-56-1) that contains […] of cholesterol-d7 (Cayman Chemical #83199-47-7) as the internal standard. The cholesterol analysis was performed on a Thermo Fisher TSQ Altis triple quadrupole mass spectrometer, operated in positive ion mode, coupled to a Vanquish UHPLC system (Thermo Fisher, Waltham, USA) using the transition from precursor mass of m/z 369.3516 (MS1) to m/z 161.1 (MS3) for cholesterol and 376.4 to 161.1 for cholesterol-d7 [REF]. […]

Assay [7] concerns Hemangioma-derived stem cells (HemSC). To be noted: earlier work; cited from earlier work.
In another assay the test system is breast cancer model. The settings on record: in vivo; cited from earlier work.
The test system of a further assay is zebrafish. To be noted: in vivo; cited from earlier work.
For assay [8], the system named is Hemangioma-derived stem cells (HemSC). The assay can be described thus: IH xenograft model: patient-derived HemSC in Matrigel injected subcutaneously into nude mice, human blood vessel formation. The assay is classed as in vivo. The method, then: MilliporeSigma) was prepared in DMSO. […] Dako, Glostrup, 0823) to stain human ECs. Next, sections were incubated with Alexa Fluor 647 chicken anti-mouse IgG (1:200, Invitrogen, Thermo Fisher Scientific) as a secondary antibody (FIG. 9C, 9D).
For orientation: A xenograft is tissue or cells of one species grown in another, often human tumour cells in immunodeficient mice.

For assay [9], the system named is HemSC. To be noted: atorvastatin 0.1 μM, 6 days.
In another assay the test system is LDL-receptor. The assay can be described thus: LDL-receptor mRNA in HemSC as indirect measure of HMGCR inhibition. Type of assay: cell-based, human. To be noted: 1 μM atorvastatin, 24 hours.
A further assay relates to infantile hemangioma. To be noted: infants with IH; cited from earlier work.

`CC(C)NC[C@H](O)COc1cccc2ccccc12` (single isomer, unassigned) [S(−) enantiomer]: the “β1 and β2-adrenergic receptor antagonism” value in assay [1] was “potent antagonist”.
Consider `CC(C)NC[C@@H](O)COc1ccc(CC(N)=O)cc1` [R(+) atenolol], for which the SOX18 activity entry at SOX18 was “inhibit”.
With `CC(C)NC[C@@H](O)COc1cccc2ccccc12.Cl` [R(+) propranolol, R(+) propranolol hydrochloride], in the assay with HemSC [2], the “HemSC endothelial differentiation in vitro” value is reported as “inhibits”. In addition, the “mature 62 kDa SREBP2” value is recorded as “decreased mature 62 kDa SREBP2” with SREBP2 [3] and “decreased levels of 62 kDa mature SREBP2” with SREBP2 [3] (listed as R+ propranolol). In addition, the results for the “transcripts encoding MVP enzymes (incl. HMGCR, HMGCS1, MVK), RNA-seq” value in assay [4] and in assay [4] (listed as R+ propranolol) were “significantly reduced transcripts encoding several enzymes of the MVP” and “inhibits eight enzymes in the mevalonate pathway”, respectively. In addition, the “ABCA1 mRNA, qPCR” value in assay [4] (2 hours or 4 days treatment) was “upregulated”. For the same molecule, the “HMGCS1, HMGCR and MVK mRNA, qPCR” value in assay [4] (2 hours or 4 days treatment) is given as “Downregulation”. The “downregulation of MVP transcripts” value in assay [4] (Day 4 of differentiation) is “not seen”. In addition, the “HMGCS1 and HMGCR mRNA levels” value in the assay on SREBP2 [5] is “did not reduce the mRNA levels”. Further, the SOX18 activity result at SOX18 is recorded as “inhibit”. Further, the endogenous cholesterol levels result in [6] (20 μM R+ propranolol after MBCD depletion, hydrochloride) was “significantly reduced; also recorded: decreased new synthesis of cholesterol”. Moreover, in assay [7], the “HemSC vasculogenesis in vivo” value is recorded as “inhibits”.
On to `O=C(O)c1c(O)cccc1CCc1ccc2ccccc2c1` [Sm4], for which the “tumor angio- and lymph-angiogenesis” value in the assay on breast cancer model is reported as “suppresses”. For the same molecule, in the assay on zebrafish, the vascular development entry is on record as “suppresses vascular development in zebrafish”. In addition, the endogenous cholesterol levels result in [6] (40 μM Sm4 after MBCD depletion) was “significantly reduced; also recorded: decreased new synthesis of cholesterol”.
On to `CC(C)c1c(C(=O)Nc2ccccc2)c(-c2ccccc2)c(-c2ccc(F)cc2)n1CC[C@@H](O)C[C@@H](O)CC(=O)O` [atorvastatin], for which, in [8] (atorvastatin 1 mg/kg/d, 7 days), the “human CD31+ blood vessel formation from HemSC” value was “significantly blocked the formation of human blood vessels; also recorded: significantly inhibited human CD31+ blood vessel formation”. Further, in assay [8] (overall statement, no single dose), the “HemSC blood vessel formation in xenograft model” value is “inhibited blood vessel formation; also recorded: significantly reduced HemSC blood vessel formation in a dose-dependent manner; also recorded: inhibit IH vessel formation”. The “VEGF-B induced endothelial differentiation (mRNA of CD31 and VE-Cadherin)” value with HemSC [9] is given as “significantly inhibited endothelial differentiation; also recorded: inhibited VEGF-B induced endothelial differentiation”. Also, in the assay with LDL-receptor, the “LDL-R mRNA” value is “significant upregulation of LDL-R mRNA; also recorded: increase LDL receptor mRNA”.
With `CC(C)NCC(O)COc1cccc2ccccc12` (stereo not drawn) [propranolol], the complete response rate in the assay with infantile hemangioma is 60%. For the same molecule, in [1], the “β1 and β2-adrenergic receptor antagonism” value is listed as “non-selective antagonist”.
As for `CCC(C)(C)C(=O)O[C@H]1C[C@@H](C)C=C2C=C[C@H](C)[C@H](CC[C@@H]3C[C@@H](O)CC(=O)O3)[C@H]21` [simvastatin], the “lowest dose that showed significant reduction in IH vessels” value in assay [8] (simvastatin dose response 0.1-10 mg/kg/d) amounted to 1 mg/kg/day.

The record behind these values is patent publication US20260207548A1, “METHODS AND COMPOSITIONS FOR THE TREATMENT OF VASCULAR ANOMALIES” (THE CHILDREN'S MEDICAL CENTER CORPORATION, priority 2022, published 2026).
